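Step 1: Grow cells in 96-well plates. Step 2: Expose to compound for 48 hours at 5 concentrations. Step 3: Interpolate endpoints linearly; if unreached, use highest concentration. GI50 marks 50% less growth. Definition used: TGI = concentration required for complete inhibition of growth.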
Columns and labels:
Test in all cases: inhibition of tumour cell growth, NCI panel, 48 h
[1] = test system: SR leukemia
[2] = test system: NCI-H23 lung
[3] = test system: HS 578T breast
[4] = test system: A549 NSCLC
[5] = test system: BT-549 breast
[6] = test system: U251 CNS
[7] = test system: OVCAR-8 ovarian
[8] = test system: UACC-62 melanoma
[9] = test system: PC-3 prostate
[10] = test system: TK-10 renal
[11] = test system: UO-31 renal
[12] = test system: OVCAR-3 ovarian
[13] = test system: K-562 leukemia
[14] = test system: HOP-62 NSCLC
[15] = test system: MDA-MB-231 breast
[16] = test system: OVCAR-5 ovarian
[17] = test system: A498 renal
[18] = test system: DU-145 prostate
[19] = test system: HL-60(TB) leukemia
[20] = test system: M14 melanoma
[21] = test system: HT29 colon
[22] = test system: HOP-92 NSCLC
[23] = test system: SK-MEL-2 melanoma
[24] = test system: EKVX NSCLC
[25] = test system: HCC-2998 colon
[26] = test system: CCRF-CEM leukemia
[27] = test system: KM12 colon
[28] = test system: MCF7 breast
[29] = test system: SW-620 colon
[30] = test system: ACHN renal
[31] = test system: SK-MEL-5 melanoma
[32] = test system: 786-0 renal
[33] = test system: T-47D breast
[34] = test system: SNB-75 CNS
[35] = test system: NCI-H522 lung
[36] = test system: SNB-19 CNS
[37] = test system: SF-539 CNS
[38] = test system: MDA-MB-435
[39] = test system: LOX IMVI melanoma
[40] = test system: HCT-15 colon
[41] = test system: SN12C renal
[42] = test system: NCI-H226 lung
[43] = test system: SK-OV-3 ovarian
[44] = test system: IGROV1 ovarian
[45] = test system: CAKI-1 renal
[46] = test system: RPMI-8226 leukemia
[47] = test system: MOLT-4 leukemia
[48] = test system: SF-268 CNS
[49] = test system: SF-295 CNS
[50] = test system: HCT-116 colon
[51] = test system: NCI-H460 lung
[52] = test system: NCI/ADR-RES ovarian

O=C(Oc1ccccc1Cl)c1ccccc1Nc1ccnc(C(F)(F)F)c1
GI50 [1]: 28.2 nM | TGI [1]: > 100000 nM | GI50 [2]: 42.8 nM | TGI [2]: 248 nM | GI50 [3]: 20000 nM | TGI [3]: 74100 nM | GI50 [4]: 1360 nM | TGI [4]: 21500 nM | GI50 [5]: 635 nM | TGI [5]: 20600 nM | GI50 [6]: 271 nM | TGI [6]: 808 nM | GI50 [7]: 366 nM | TGI [7]: 14300 nM | GI50 [8]: 165 nM | TGI [8]: 2050 nM | GI50 [9]: 306 nM | TGI [9]: 3550 nM | GI50 [10]: 415 nM | TGI [10]: 4610 nM | GI50 [11]: 9630 nM | TGI [11]: > 57900 nM | GI50 [12]: 247 nM | TGI [12]: 533 nM | GI50 [13]: 76.8 nM | TGI [13]: 3390 nM | GI50 [14]: 2690 nM | TGI [14]: 7860 nM | GI50 [15]: 202 nM | TGI [15]: 502 nM | GI50 [16]: 459 nM | TGI [16]: 24400 nM | GI50 [17]: 3920 nM | TGI [17]: 17600 nM | GI50 [18]: 3420 nM | TGI [18]: 13300 nM | GI50 [19]: 472 nM | TGI [19]: > 100000 nM | GI50 [20]: 252 nM | TGI [20]: 913 nM | GI50 [21]: 389 nM | TGI [21]: > 100000 nM | GI50 [22]: 271 nM | TGI [22]: 13400 nM | GI50 [23]: 26400 nM | TGI [23]: > 100000 nM | GI50 [24]: 6850 nM | TGI [24]: 26000 nM | GI50 [25]: 2220 nM | TGI [25]: 5260 nM | GI50 [26]: 32.4 nM | GI50 [27]: 299 nM | TGI [27]: 1360 nM | GI50 [28]: 1010 nM | TGI [28]: > 30800 nM | GI50 [29]: 150 nM | TGI [29]: 20000 nM | GI50 [30]: 281 nM | TGI [30]: 808 nM | GI50 [31]: 264 nM | TGI [31]: 545 nM | GI50 [32]: 859 nM | TGI [32]: 2390 nM | GI50 [33]: 31200 nM | TGI [33]: > 100000 nM | GI50 [34]: 676 nM | TGI [34]: 27000 nM | GI50 [35]: 380 nM | TGI [35]: > 70300 nM | GI50 [36]: 7430 nM | TGI [36]: > 100000 nM | GI50 [37]: 383 nM | TGI [37]: 1880 nM | GI50 [38]: 107 nM | TGI [38]: 297 nM | GI50 [39]: 26.1 nM | TGI [39]: 86.4 nM | GI50 [40]: 219 nM | TGI [40]: 538 nM | GI50 [41]: 289 nM | TGI [41]: 2570 nM | GI50 [42]: 286 nM | TGI [42]: 915 nM | GI50 [43]: 8020 nM | TGI [43]: 46400 nM | GI50 [44]: 16300 nM | TGI [44]: > 100000 nM | GI50 [45]: 599 nM | TGI [45]: 1760 nM | GI50 [46]: 106 nM | TGI [46]: 385 nM | GI50 [47]: 258 nM | GI50 [48]: 710 nM | GI50 [49]: 270 nM | TGI [49]: 1090 nM | GI50 [50]: 1780 nM | TGI [50]: 3650 nM | GI50 [51]: 422 nM | TGI [51]: > 26200 nM | GI50 [52]: 269 nM | TGI [52]: 698 nM
